# Measurements from US11925656B2, “Biological total joint replacement” (priority 2014, dated 2024).
# Entries after “also recorded” stand apart in the source; their conditions may differ.
# Columns and labels:
# [1] = test system: MMP3; assay: MMP3 in synovial fluid by ELISA, rabbit arthritis model; type: in vivo; conditions: therapeutic groups, oral days 42-70, vs control
# From the text: (§1) The study was approved by the Institutional Animal Care and Use Committee (IACUC) of Thomas D. Morris, Inc. 28 New Zeeland White rabbits were selected for the study. Six such were randomly assigned to one of four groups; prophylactic cyanidin-3-glycoside (C3G)(referred to figures as Cl 1-42), prophylactic protocatechuic acid (PCA)(referred to in figures as PCA 1-42), therapeutic C3G (referred to in figures as Cl 42-70), and therapeutic PCA (referred to in figures as PCA 42-70). There were four controls, two each to the prophylactic and therapeutic groups.
# (§2) The prophylactic groups were given PROC3G™ by Chromadex™ at a dose of 30 mg/kg of body weight of either C3G or PCA by mouth, 7 times per week for 42 days. The therapeutic groups' treatment was initiated on day 42 with a daily dose of PROC3G™ by Chromadex™ 7 times per week for 4 weeks. The dose of 30 mg of cyanidin-3-glucoside per kg of body weight calculates to be 0.177 millimoles per kg body weight. The dose of PCA was the same in terms of millimoles per kg body weight. […]
# MMP3 is known as matrix metallopeptidase 3, or stromelysin 1 or progelatinase. […] See FIG. 2C. • Synovial Tissue (Synovium)—Detected by ELISA • MMP-3 levels were reduced in all four groups. See FIG. 9B. • Synovial Tissue (Synovium)—Gene Expression Level Detected by Real-Time PCR • MMP-3 gene expression was decreased in all groups. […]
# [2] = test system: aggrecan; assay: Aggrecan expression in patellar cartilage, rabbit arthritis model; type: in vivo; conditions: prophylactic, minimum of 30 mg/kilo gram body weight by oral route, compared to the controls
# From the text: as §1
# (§3) The prophylactic groups were given PROC3G™ by Chromadex™ at a dose of 30 mg/kg of body weight of either C3G or PCA by mouth, 7 times per week for 42 days. The therapeutic groups' treatment was initiated on day 42 with a daily dose of PROC3G™ by Chromadex™ 7 times per week for 4 weeks. The dose of 30 mg of cyanidin-3-glucoside per kg of body weight calculates to be 0.177 millimoles per kg body weight. The dose of PCA was the same in terms of millimoles per kg body weight.
# (§4) The experimental rabbits underwent surgery with an intent to create a severe degenerative arthritis by cutting the medial collateral ligament, the anterior cruciate ligament and removing the medial meniscus. A partial thickness laceration was made longitudinally on the lateral femoral condyle for future assessment of potential for repair. […]
# [3] = test system: IGF-1; assay: IGF-1 in plasma, rabbit arthritis model; type: in vivo; conditions: for IGF-1 in the plasma: control group 25 PG/ML
# From the text: as §1, §3
# (§5) The experimental rabbits underwent surgery with an intent to create a severe degenerative arthritis by cutting the medial collateral ligament, the anterior cruciate ligament and removing the medial meniscus. A partial thickness laceration was made longitudinally on the lateral femoral condyle for future assessment of potential for repair. The surgery was performed by two licensed veterinarians. One surgeon was very experienced. The other surgeon was a recent graduate.
# Blood testing was performed prior to necropsy on C3G, PCA, glucose, MMP-3 and IGF-1 to assess any systemic effects.
# [4] = test system: human osteoblasts; conditions: in vitro, dose related; cited from earlier work
# [5] = test system: IGF-1 gene expression; assay: IGF-1 gene expression in synovium by real-time PCR, rabbit arthritis model; type: in vivo; conditions: rabbits, either oral or intraarticular route
# From the text: as §1, §2
# See FIG. 5B. • Synovial Tissue (Synovium)-Detected by ELISA • IGF-1 was increased in all groups. See FIG. 8B. • Synovial Tissue (Synovium)-Gene Expression Level Detected by Real-Time PCR • IGF-1 was increased in all groups.
# [6] = test system: patellar articular cartilage; assay: ICRS histological visual scale scoring of patellar cartilage, rabbit arthritis model; type: in vivo; conditions: prophylactic, minimum of 30 mg/kilo gram body weight by oral route
# From the text: International Cartilage Repair Society (ICRS) criteria are described for example in Hoemann, et al., (cited on Applicant's IDS), herein incorporated by reference.
# as §1, §3
# (§6) The experimental rabbits underwent surgery with an intent to create a severe degenerative arthritis by cutting the medial collateral ligament, the anterior cruciate ligament and removing the medial meniscus. […]
# [7] = test system: human mesenchymal stem cells; conditions: in vitro, dose related; cited from earlier work
# [8] = test system: lubricin; assay: Lubricin in synovium by ELISA, rabbit arthritis model; type: in vivo; conditions: prophylactic groups, oral days 1-42, vs control
# From the text: as §1, §3, §5
# (§7) At necropsy, the synovial fluid was harvested percutaneously and upon arthrotomy. The synovium was harvested from posterior compartment. The patella and adjacent synovium was procured as a separate specimen as was the medial and lateral condyle.
# (§8) The synovial fluid and half of the synovium was frozen and sent to BioBoston Laboratory for chemical analysis. The other half of the synovium and bone was sent to McClinchery Histology in Stockbridge, Mich. for histological preparation and staining. […]
# Synovial Tissue (Synovium)—Detected by ELISA
# [9] = test system: lubricin; assay: Lubricin expression in cartilage, immunohistochemical staining, rabbit arthritis model; type: in vivo; conditions: prophylactic, minimum of 30 mg/kilo gram body weight by oral route, compared to the controls
# From the text: as §1, §3, §4
# [10] = test system: ADAMTS-5; assay: ADAMTS-5 in synovial fluid by ELISA, rabbit arthritis model; type: in vivo; conditions: therapeutic groups, oral days 42-70, vs control
# From the text: as §1, §3, §5, §7, §8
# (§9) Synovial Fluid—Detected by ELISA
# [11] = test system: collagen II; assay: Collagen II expression in cartilage, immunohistochemical staining, rabbit arthritis model; type: in vivo; conditions: prophylactic, minimum of 30 mg/kilo gram body weight by oral route, compared to the controls
# From the text: as §1, §3, §4
# [12] = test system: lymphocytes; assay: Number of lymphocytes in synovial fluid, rabbit arthritis model; type: in vivo
# From the text: as §1, §3, §5, §7
# In addition to testing for the increase or decrease of various factors and cytokines, tests were run to count the number of white blood cells, including polymorphonuclear leukocytes (PMN), macrophages (Mac) and lymphocytes (Lym). […]
# [13] = human; cited from earlier work
# [14] = test system: catabolic cytokine environment; assay: Cytokine environment in surgically created arthritic knee; type: in vivo; conditions: rabbits, either oral or intraarticular route
# [15] = test system: IL-1 beta; assay: IL-1 beta in synovium by ELISA, rabbit arthritis model; type: in vivo; conditions: therapeutic groups, oral days 42-70, vs control
# From the text: as §1, §2
# Interleukin-1 beta (IL-1p) also known as catabolic, is a cytokine protein. […] Increased production of IL-1B causes a number of different auto-inflammatory syndromes. • Synovial Fluid—Detected by ELISA • Levels of IL-1 beta were decreased in all groups. See FIG. 2A. • Synovial Tissue (Synovium)—Detected by ELISA
# [16] = more powerful than vitamin E; cited from earlier work
# [17] = test system: TNF-alpha; assay: TNF-alpha in synovial fluid by ELISA, rabbit arthritis model; type: in vivo; conditions: therapeutic groups, oral 4 weeks, vs control; not statistically significant
# From the text: as §1, §3, §6, §9
# [18] = test system: ADAMTS-5 gene expression; assay: ADAMTS-5 gene expression in synovium by real-time PCR, rabbit arthritis model; type: in vivo; conditions: therapeutic groups, oral days 42-70, vs control
# From the text: as §1, §3, §6
# Synovial Tissue (Synovium)—Gene Expression Level Detected by Real-Time PCR
structure (smiles),measurement,setting,value
"O=C(O)c1ccc(O)c(O)c1 [PCA, Protocatechuic acid (3,4-dihydroxybenzoic acid)]",MMP3 in synovial fluid,[1],decreased
same,aggrecan in articular cartilage ECM,[2],increased
same,"IGF-1 in the plasma, change vs control","[3]; prophylactic group, oral days 1-42, only group with an increase",increased
same,IGF-1 in the plasma,"[3]; prophylactic groups, oral days 1-42",43.0 pg/mL
same,IGF-1 in the plasma,"[3]; therapeutic groups, oral days 42-70",29.0 pg/mL
same,bone making markers in human osteoblasts,[4],produce bone making markers
same,IGF-1 genetic expression in the synovium,[5],increase
same,articular cartilage cells,[6]; compared to the controls,unchanged in nature and spacing
same,subchondral bone structure,[6]; without sclerosis or osteophyte formation,remained normal in structure
same,bone making markers in human mesenchymal stem cells,[7],produce bone making markers
same,lubricin in synovium,[8],increased
same,lubricin on the articular cartilage surface,[9],increased
same,ADAMTS-5 in synovial fluid,[10],decreased
same,type II collagen in articular cartilage ECM,[11],increased
same,number of lymphocytes in synovial fluid,"[12]; prophylactic groups, oral days 1-42, vs control",decreased
same,number of lymphocytes in synovial fluid,"[12]; therapeutic groups, oral days 42-70, vs control",decreased
same,toxicity,[13],non-toxic; also recorded: no known human toxic effects
same,catabolic cytokine environment in a surgically created arthritic knee,[14],reversing
same,levels of IL-1 beta in synovium,[15],decreased
same,antioxidant power relative to vitamin E,[16],10 ×
same,TNF-alpha levels in synovial fluid,[17],slight increase
same,ADAMTS-5 gene expression in synovium,[18],decreased
